Results from patent US20090253709A1 (NATIONAL DEFENSE MEDICAL CENTER, priority 2008, published 2009).

Tests used:
Test in all cases: In vitro cytotoxicity, Development Therapeutics Program
Format in all cases: cell-based
OVCAR-4 = details: OVCAR-4, ovarian cancer; 1.0×10^−5 M
How it was run: (§1)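 Single-dose screen, 1.0×10^−5 M compound; cancer cell lines; read-out = growth inhibition level; run by the Development Therapeutics Program (US).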

RPMI-8226 = details: RPMI-8226, leukemia; 1.0×10^−5 M
How it was run: as §1

UACC-257 = details: UACC-257, melanoma; 1.0×10^−5 M
How it was run: as §1

OVCAR-3 = details: OVCAR-3, ovarian cancer; 1.0×10^−5 M
How it was run: as §1

NCl-H460 = details: NCl-H460, non-small cell lung cancer; 1.0×10^−5 M
How it was run: as §1

SNB-19 = details: SNB-19, CNS cancer; 1.0×10^−5 M
How it was run: as §1

SNB-75 = details: SNB-75, CNS cancer; 1.0×10^−5 M
How it was run: as §1

U251 = details: U251, CNS cancer; 1.0×10^−5 M
How it was run: as §1

T-47D = details: breast cancer, 1.0×10^−5 M
How it was run: as §1

HL-60(TB) = details: leukemia, 1.0×10^−5 M
TK-10 = details: TK-10, renal cancer; 1.0×10^−5 M
How it was run: as §1

SF-539 = details: SF-539, CNS cancer; 1.0×10^−5 M
How it was run: as §1

SMILES	Cellular growth rate (%) (OVCAR-4)	Cellular growth rate (%) (RPMI-8226)	Cellular growth rate (%) (UACC-257)	Cellular growth rate (%) (OVCAR-3)	Cellular growth rate (%) (NCl-H460)	Cellular growth rate (%) (SNB-19)	Cellular growth rate (%) (SNB-75)	Cellular growth rate (%) (U251)	Cellular growth rate (%) (T-47D)	Cellular growth rate (%) (HL-60(TB))	Cellular growth rate (%) (TK-10)	Cellular growth rate (%) (SF-539)
CN(C)CC(=O)Nc1ccc2c(c1)C(=O)c1cc(NC(=O)CN(C)C)ccc1C2=O [Compound 8, 2,7-Bis[2-(dimethylamino)acetamido]anthraquinone]	45.70%	34.97%	−1.84%	43.63%	5.01%	79.57%	76.12%	16.26%	24.62%	−64.97%	73.47%	−3.72%
CCN(CC)CCC(=O)Nc1ccc2c(c1)C(=O)c1cc(NC(=O)CCN(CC)CC)ccc1C2=O [Compound 16, 2,7-Bis[3-(diethylamino)propionamido]anthraquinone]	24.92%	−29.02%	−14.46%	10.39%	9.50%	75.84%	46.62%	21.65%	68.62%	14.01%	17.16%	37.15%
O=C(CCN1CCCC1)Nc1ccc2c(c1)C(=O)c1cc(NC(=O)CCN3CCCC3)ccc1C2=O [Compound 18, 2,7-Bis[3-(pyrrolidino)propionamido]anthraquinone]	49.82%	47.90%	−17.88%	36.88%	25.52%	66.97%	77.47%	18.16%	58.98%	85.84%	31.22%	33.75%
CC(=O)Nc1ccc2c(c1)C(=O)c1cc(NC(C)=O)ccc1C2=O [Compound 26, 2,7-Bis(acetamido)anthraquinone]	103.60%	121.47%	26.97%	111.06%	109.29%	94.40%	106.91%	95.14%	96.17%	38.74%	118.38%	103.04%
O=C1c2ccc(NC(=O)C3CC3)cc2C(=O)c2cc(NC(=O)C3CC3)ccc21 [Compound 32, 2,7-Bis(cyclopropanecarbonamido)anthraquinone]	97.54%	88.38%	107.63%	103.35%	89.03%	98.79%	89.23%	72.62%	79.75%	62.45%	136.20%	93.24%
